# Measured values: ChEMBL document CHEMBL1201862, “PubChem BioAssay data set” (2004)
# Active and inactive are the calls of the source.
# What was measured:
# [1] = Cytotoxicity screening for potential Inhibitors of Bacterial Capsule Biogenesis. [Related pubchem assays (depositor defined):AID488970]; assay type: functional
# [2] = target: T1, Nucleotide-binding oligomerization domain-containing protein 2 (Homo sapiens, UniProt Q9HC29); assay: NOD2 signaling inhibitors, cell-based, luminescence, uHTS, HEK293 (AID 1566); assay type: functional
# [3] = target: Tumor necrosis factor (Homo sapiens, UniProt P01375); assay: TNFa-triggered NF-kB activation inhibitors, SAR follow-up, cell-based, revised (AID 2337); assay type: functional
# [4] = target: Nucleotide-binding oligomerization domain-containing protein 1 (Homo sapiens, UniProt Q9Y239); assay: NOD1 signaling inhibitors, SAR follow-up, revised (AID 2333); assay type: functional
# [5] = target: T2, Short transient receptor potential channel 4 (Mus musculus, UniProt Q9QUQ5); assay: mouse TRPC4 channel inhibitors, dose response, cell-based, HEK293 TRPC4/mu-opioid, Fluo-4 calcium (AID 434942); assay type: functional;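 further: potency of inhibitors blocking the TRPC4 calcium response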
# T2 sequence (Q9QUQ5 whole entry): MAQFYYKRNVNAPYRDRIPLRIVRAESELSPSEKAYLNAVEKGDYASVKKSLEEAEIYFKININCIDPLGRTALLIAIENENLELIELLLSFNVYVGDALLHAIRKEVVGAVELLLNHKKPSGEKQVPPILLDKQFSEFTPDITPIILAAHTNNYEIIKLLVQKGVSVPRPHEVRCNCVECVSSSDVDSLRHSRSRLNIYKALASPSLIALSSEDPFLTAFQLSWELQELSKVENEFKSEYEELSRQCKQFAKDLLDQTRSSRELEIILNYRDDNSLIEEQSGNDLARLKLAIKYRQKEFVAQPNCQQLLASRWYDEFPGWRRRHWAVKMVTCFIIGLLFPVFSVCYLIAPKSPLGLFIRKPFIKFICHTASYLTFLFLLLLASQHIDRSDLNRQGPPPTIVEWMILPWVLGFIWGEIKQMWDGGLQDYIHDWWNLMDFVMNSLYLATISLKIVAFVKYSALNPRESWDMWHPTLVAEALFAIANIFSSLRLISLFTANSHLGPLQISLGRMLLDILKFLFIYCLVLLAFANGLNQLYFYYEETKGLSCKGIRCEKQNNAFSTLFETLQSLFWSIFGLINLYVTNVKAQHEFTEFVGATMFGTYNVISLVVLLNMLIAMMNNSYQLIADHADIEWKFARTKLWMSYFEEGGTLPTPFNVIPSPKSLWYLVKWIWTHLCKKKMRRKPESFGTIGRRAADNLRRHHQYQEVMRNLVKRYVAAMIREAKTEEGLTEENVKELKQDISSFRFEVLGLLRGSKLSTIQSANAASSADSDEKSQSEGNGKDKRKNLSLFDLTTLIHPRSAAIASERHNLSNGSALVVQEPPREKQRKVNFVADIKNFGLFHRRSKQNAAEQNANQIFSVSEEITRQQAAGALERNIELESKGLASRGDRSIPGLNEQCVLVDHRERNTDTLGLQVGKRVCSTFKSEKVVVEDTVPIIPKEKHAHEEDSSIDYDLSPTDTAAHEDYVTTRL
# [6] = target: T1, Nucleotide-binding oligomerization domain-containing protein 2; assay: PubChem AID 2334; assay type: functional
# [7] = target: T3, Cysteine protease ATG4B (Homo sapiens, UniProt Q9Y4P1); assay type: functional;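 further: Fluorescence-based dose-response confirmation assay measuring inhibition of ATG4B activity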
# T3 sequence (Q9Y4P1 whole entry): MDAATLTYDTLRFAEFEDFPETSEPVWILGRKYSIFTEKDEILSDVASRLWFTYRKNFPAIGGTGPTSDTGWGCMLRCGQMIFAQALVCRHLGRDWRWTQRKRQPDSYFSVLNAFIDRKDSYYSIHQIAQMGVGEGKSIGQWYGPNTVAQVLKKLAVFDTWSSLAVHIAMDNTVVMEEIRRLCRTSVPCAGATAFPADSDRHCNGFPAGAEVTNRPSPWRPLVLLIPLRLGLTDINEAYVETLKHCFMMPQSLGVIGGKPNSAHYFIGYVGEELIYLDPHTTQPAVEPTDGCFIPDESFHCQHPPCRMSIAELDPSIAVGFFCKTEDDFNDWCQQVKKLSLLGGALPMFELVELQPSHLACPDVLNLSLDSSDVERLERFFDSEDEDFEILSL
# [8] = target: Phospholipase A2 (Homo sapiens, UniProt P04054); assay type: functional;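 further: confirmatory dose-response counterscreen on phospholipase A2, testing hits that came from an ultra-high-throughput screen for ATG4B inhibitors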
# [9] = target: T4, G-protein coupled receptor 35 (Homo sapiens, UniProt Q9HC97); assay: GPR35 antagonists blocking zaprinast-driven arrestin recruitment, primary screen, imaging, U2OS, beta-arrestin-GFP, zaprinast agonist (AID 2058); assay type: functional;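 further: antagonist potency meaning inhibition of agonist-induced arrestin redistribution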
# [10] = target: T4, G-protein coupled receptor 35; assay: SAR Analysis for the identification of Selective Antagonists of ERK1/2 Activity in GPR35-Overexpressing U2OS Cells. [Related pubchem assays: 2079, 2058 ]; assay type: functional, cell-based
# [11] = inhibitors of intracellular T. cruzi replication, confirmation, NIH3T3 host cells, beta-gal luminescence (AID 2044); assay type: functional, cell-based;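 further: intracellular parasites grown in NIH/3T3 mouse fibroblasts as host cells; luminescent beta-galactosidase reporter signal from transgenic T. cruzi replicating inside host cells; inhibitors lower the luminescence signal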
# [12] = cytotoxicity toward NIH3T3 fibroblasts, dose response, counter-screen, cell-based, ATP luminescence, mouse fibroblasts (AID 2010); assay type: functional;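 further: cells exposed to compound for about 90 hours before reading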
# [13] = target: G-protein coupled receptor 55 (Homo sapiens, UniProt Q9Y2T6); assay: GPR55 antagonists, SAR follow-up, counter-screen for GPR35 antagonist project, imaging, image-based (AID 2397); assay type: functional
# [14] = target: Bcl-2-like protein 10 (Homo sapiens, UniProt Q9HD36); assay: displacers of TR3 peptide from Bcl-B, primary screen, selectivity assay for Bfl-1 inhibitor project, biochemical, fluorescence polarization, FITC-TR3 peptide (AID 748);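 further: fluorescence polarization from a fluorescein-labelled TR3 peptide binding purified Bcl-B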
# Sequence of Bcl-2-like protein 10 (Q9HD36 whole entry): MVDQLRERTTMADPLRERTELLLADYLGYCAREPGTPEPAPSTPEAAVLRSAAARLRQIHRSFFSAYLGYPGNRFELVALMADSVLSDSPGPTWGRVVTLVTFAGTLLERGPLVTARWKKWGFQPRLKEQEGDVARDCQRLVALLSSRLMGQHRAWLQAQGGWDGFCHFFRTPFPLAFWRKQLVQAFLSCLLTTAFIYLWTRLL
# T1 sequence (Q9HC29 whole entry, the tested form may be a part): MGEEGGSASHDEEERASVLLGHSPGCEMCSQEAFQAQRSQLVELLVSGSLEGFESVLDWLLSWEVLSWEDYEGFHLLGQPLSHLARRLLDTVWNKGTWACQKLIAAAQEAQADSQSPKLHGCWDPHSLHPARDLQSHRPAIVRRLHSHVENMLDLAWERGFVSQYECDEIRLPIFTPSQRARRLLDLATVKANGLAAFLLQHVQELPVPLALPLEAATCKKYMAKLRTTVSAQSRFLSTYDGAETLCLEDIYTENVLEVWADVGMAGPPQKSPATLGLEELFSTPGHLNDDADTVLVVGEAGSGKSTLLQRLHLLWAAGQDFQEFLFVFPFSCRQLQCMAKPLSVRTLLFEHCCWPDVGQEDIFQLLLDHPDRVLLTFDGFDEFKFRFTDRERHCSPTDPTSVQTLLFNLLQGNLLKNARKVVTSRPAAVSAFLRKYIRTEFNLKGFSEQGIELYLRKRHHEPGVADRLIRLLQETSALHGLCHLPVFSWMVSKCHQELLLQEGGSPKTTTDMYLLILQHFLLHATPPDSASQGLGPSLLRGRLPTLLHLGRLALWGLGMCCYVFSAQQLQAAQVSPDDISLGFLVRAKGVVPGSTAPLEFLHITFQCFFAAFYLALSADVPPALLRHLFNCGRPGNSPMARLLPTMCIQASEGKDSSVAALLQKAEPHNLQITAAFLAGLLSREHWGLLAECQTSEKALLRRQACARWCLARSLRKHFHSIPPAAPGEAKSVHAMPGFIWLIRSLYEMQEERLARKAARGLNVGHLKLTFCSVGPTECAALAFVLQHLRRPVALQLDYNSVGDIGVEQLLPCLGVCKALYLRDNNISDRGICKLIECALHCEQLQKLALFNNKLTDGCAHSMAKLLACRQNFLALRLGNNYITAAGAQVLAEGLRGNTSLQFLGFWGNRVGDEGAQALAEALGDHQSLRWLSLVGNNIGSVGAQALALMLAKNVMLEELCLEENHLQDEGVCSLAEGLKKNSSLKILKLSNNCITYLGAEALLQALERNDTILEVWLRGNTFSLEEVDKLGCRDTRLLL
# T4 sequence (Q9HC97 whole entry): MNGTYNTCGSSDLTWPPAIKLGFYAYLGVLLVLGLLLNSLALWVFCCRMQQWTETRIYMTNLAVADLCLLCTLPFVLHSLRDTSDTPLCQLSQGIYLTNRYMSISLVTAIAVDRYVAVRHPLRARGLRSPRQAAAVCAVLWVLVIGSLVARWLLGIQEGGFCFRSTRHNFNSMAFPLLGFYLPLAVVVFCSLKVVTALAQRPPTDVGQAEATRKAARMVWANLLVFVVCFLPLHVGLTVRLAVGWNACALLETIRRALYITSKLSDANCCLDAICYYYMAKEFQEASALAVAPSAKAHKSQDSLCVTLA
# Sequence of Phospholipase A2 (P04054 whole entry): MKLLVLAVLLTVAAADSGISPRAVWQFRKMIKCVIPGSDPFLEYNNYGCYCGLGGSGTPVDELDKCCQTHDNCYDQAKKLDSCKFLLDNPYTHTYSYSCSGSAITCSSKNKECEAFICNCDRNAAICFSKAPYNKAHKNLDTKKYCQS
# Sequence of Tumor necrosis factor (P01375 whole entry, the tested form may be a part): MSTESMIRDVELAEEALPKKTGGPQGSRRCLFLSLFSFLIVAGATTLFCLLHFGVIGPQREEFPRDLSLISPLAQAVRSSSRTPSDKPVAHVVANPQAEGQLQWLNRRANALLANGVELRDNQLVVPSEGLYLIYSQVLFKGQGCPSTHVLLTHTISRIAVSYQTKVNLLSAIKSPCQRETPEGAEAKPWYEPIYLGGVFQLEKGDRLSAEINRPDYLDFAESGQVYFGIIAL
# Sequence of Nucleotide-binding oligomerization domain-containing protein 1 (Q9Y239 whole entry, the tested form may be a part): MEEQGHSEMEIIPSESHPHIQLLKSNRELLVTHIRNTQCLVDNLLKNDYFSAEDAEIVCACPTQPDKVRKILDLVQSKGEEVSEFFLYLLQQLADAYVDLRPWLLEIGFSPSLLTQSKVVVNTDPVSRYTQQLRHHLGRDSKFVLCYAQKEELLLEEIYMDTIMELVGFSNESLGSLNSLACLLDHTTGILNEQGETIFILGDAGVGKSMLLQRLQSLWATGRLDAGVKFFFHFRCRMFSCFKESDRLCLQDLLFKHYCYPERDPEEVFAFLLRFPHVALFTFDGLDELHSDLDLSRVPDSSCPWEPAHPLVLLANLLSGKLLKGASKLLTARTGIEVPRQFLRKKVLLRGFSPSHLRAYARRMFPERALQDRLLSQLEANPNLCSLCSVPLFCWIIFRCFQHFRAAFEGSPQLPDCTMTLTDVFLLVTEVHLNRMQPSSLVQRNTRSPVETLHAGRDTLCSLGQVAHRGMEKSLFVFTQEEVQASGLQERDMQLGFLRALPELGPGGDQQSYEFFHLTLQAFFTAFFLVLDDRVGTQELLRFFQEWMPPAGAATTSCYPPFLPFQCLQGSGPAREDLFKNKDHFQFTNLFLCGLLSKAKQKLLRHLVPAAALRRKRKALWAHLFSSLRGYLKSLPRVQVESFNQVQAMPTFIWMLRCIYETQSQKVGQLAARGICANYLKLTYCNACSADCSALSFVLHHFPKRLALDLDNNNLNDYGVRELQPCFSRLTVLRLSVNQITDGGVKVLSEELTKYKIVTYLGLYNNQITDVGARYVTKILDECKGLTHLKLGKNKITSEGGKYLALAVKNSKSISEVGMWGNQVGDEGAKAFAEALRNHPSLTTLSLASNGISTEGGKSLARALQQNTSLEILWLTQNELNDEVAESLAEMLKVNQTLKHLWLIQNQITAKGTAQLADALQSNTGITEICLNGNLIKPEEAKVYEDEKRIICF
# Sequence of G-protein coupled receptor 55 (Q9Y2T6 whole entry): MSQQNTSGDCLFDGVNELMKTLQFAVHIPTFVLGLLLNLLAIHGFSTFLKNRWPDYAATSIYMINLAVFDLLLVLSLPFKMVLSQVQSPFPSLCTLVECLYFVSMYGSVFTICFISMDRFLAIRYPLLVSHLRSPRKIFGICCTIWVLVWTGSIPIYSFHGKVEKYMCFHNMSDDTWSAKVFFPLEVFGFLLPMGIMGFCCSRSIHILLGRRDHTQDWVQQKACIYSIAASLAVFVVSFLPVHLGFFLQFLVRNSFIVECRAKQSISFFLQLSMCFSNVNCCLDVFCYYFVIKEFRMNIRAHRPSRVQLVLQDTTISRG
smiles,measurement,setting,value
C=CCOc1ccc(C2c3c(oc4ccccc4c3=O)C(=O)N2CCCN2CCOCC2)cc1 (centres undefined),CC50,[1],> 100 µM (active)
Cc1ccc(CSc2nc(-c3ccccc3)c(C#N)c(=O)[nH]2)cc1,EC50,[2],13.2 µM (active)
same,IC50,[3],8.2 µM (active)
same,IC50,[4],5.5 µM (active)
same,EC50,[5],5.31 µM (active)
same,IC50,[6],6.9 µM (active)
same,IC50,[7],7.62 µM (active)
same,IC50,[8],21.2 µM (inactive)
Cc1ccc(Cn2ncc3c(N4CCN(c5ccccc5C)CC4)ncnc32)cc1,IC50,[9],0.761 µM (active)
same,IC50,[10],17.7 µM (not active)
same,EC50,[11],1.6 µM (active)
same,EC50,[12],> 60 µM (not active)
same,IC50,[13],> 32 µM (inactive)
Cc1cc2cc(CN(Cc3ccco3)S(=O)(=O)c3c(C)ccc4nsnc34)c(=O)[nH]c2cc1C,IC50,[14],> 100 µM (inactive)
